Measurements reported in patent US20250034139A1, “AMINE COMPOUNDS HAVING ANTI-INFLAMMATORY, ANTIFUNGAL, ANTIPARASITIC, AND ANTICANCER ACTIVITY” (PHARMA CINQ, LLC, priority 2013, published 2025).

Tests used:
[1] = tested on: EAE induced by PLP139-151; test: Example G: Experimental Autoimmune Encephalitis (EAE) mouse model of multiple sclerosis; type: in vivo
[2] = tested on: TPA induced chronic skin inflammation; test: Example E: TPA induced chronic skin inflammation mouse model, ear thickness; type: in vivo
Description: Objective: To evaluate the anti-inflammatory properties of compounds of the invention in a 12-O-tetradecanoylphorbol-13-acetate (TPA) induced chronic skin inflammation mouse model.
Topically applied phorbol esters such as TPA induce skin inflammation involving edema, macrophage and T cell infiltration and epidermal hyperplasia (Alford et al., 1992), and this system has been used as an animal model for dermatitis, mimicking aspects of human inflammatory skin disorders. TPA is also known as a tumor promoter, so that agents which inhibit hyperproliferative or angiogenic actions of TPA may inhibit tumor promotion.
Drug formulations: Compound AC was dissolved in isopropyl myristate:propylene glycol (1:1)+0.9% DMSO at the indicated concentrations. TPA was dissolved in acetone:water (99:1). Dexamethasone (0.06%) was dissolved in normal saline.
Mice: HSD-ICR(CD-1R) female mice at 8-10 weeks of age were used in this experiment.
Experimental Design: Mice were placed into six groups of 10 mice each. 20 μL of 0.01% TPA was administered to each ear on days 0, 2, 4, 7, 9, 11, 13, 15, 18, 20, and 22. 20 μL of AC at various concentrations or 20 μL of dexamethasone solution was applied to the ears daily beginning on day 7, after inflammatory changes in ear thickness were established. Ear thickness was measured with calipers every three days.

[3] = tested on: Vit-D3 activated THP-1 cells; test: Example B: Acridine Orange (A.O.) uptake, lysosomal acidification and integrity; type: cell-based, Human; settings: 5 hours
Experimental: In this experiment, cell viability was monitored and uptake and accumulation of acridine orange, a lysosomotropic fluorescent dye, was used to assess lysosomal acidification and integrity. JC-1 dye was used to measure effects of test compounds on mitochondrial membrane potential (MMP); reduction of MMP is a feature of apoptotic cell death. • 1. […] The tubes were washed twice in DPBS, resuspended in 500 μl DPBS and acquired on the FACSCalibur.

Compound | EAE Score on Day 46 ([1]; 60 μmol/kg by oral gavage from Day 14, score 0-5) | EAE Score on Day 14 (Before Treatment) ([1]; baseline, score 0-5) | Ear thickness (mm) ([2]; day 22, 0.0125 mg/ear daily topical from day 7, TPA-treated mice) | Ear thickness (mm) ([2]; day 22, 0.025 mg/ear daily topical from day 7, TPA-treated mice) | Ear thickness (mm) ([2]; day 22, 0.05 mg/ear daily topical from day 7, TPA-treated mice) | Ear thickness (mm) ([2]; day 22, 0.075 mg/ear daily topical from day 7, TPA-treated mice) | Histology of TPA-treated ears, in words ([2]; topical AC) | A.O. FL-3 fluorescence (MFI) percent change from DMSO no LPS, Mean ± SE ([3]; 0.1 μM AC, 1 ng/ml LPS) [%] | A.O. FL-3 fluorescence (MFI) percent change from DMSO no LPS, Mean ± SE ([3]; 0.1 μM AC, No LPS) [%] | A.O. FL-3 fluorescence (MFI) percent change from DMSO no LPS, Mean ± SE ([3]; 0.5 μM AC, 1 ng/ml LPS) [%] | A.O. FL-3 fluorescence (MFI) percent change from DMSO no LPS, Mean ± SE ([3]; 0.5 μM AC, No LPS) [%] | A.O. FL-3 fluorescence (MFI) percent change from DMSO no LPS, Mean ± SE ([3]; 1.0 μM AC, 1 ng/ml LPS) [%] | A.O. FL-3 fluorescence (MFI) percent change from DMSO no LPS, Mean ± SE ([3]; 1.0 μM AC, No LPS) [%]
CCCCCCOc1cccc(OCCCNc2ccnc3ccccc23)c1 [AZ, N-{3-[3-(Hexyloxy)phenoxy]propyl}quinolin-4-amine] | 2.50 ± 0.29 | 0.83 ± 0.41 |  |  |  |  |  |  |  |  |  |  | 
CCCCCCOc1cccc(CNc2ccnc3ccccc23)c1 [Compound AC, N-[3-(Hexyloxy)benzyl]quinolin-4-amine] |  |  | 0.362 ± 0.0394 | 0.390 ± 0.0319 | 0.391 ± 0.0334 | 0.395 ± 0.0438 | both TPA-induced edema and epidermal hyperplasia were reduced by AC, as was angiogenesis | −54.72 ± 2.74 | −27.64 ± 9.68 | −68.24 ± 2.39 | −54.59 ± 4.05 | −81.11 ± 2.65 | −69.52 ± 2.05
